Data published in patent publication US7767455B2, “Nucleus export reporter system” (priority 2000, dated 2010).

Key:
[1] = system: Rev-mediated nuclear export; test: Inhibition of Rev-dependent GFP expression of the UTR-hivGFP-RRE reporter in transfected H1299 cells (Western blot); format: cell-based, human; settings: 5 nM LMB in the medium 24 h before harvesting, Rev cotransfected, FIG. 5B
[2] = system: huGFP reporter; test: Expression of the Rev-independent huGFP reporter in transfected H1299 cells (Western blot); format: cell-based, human; settings: 5 nM LMB in the medium 24 h before harvesting, FIG. 5B

Which results are given for `CCC(=C/[C@H](C)C/C=C/C(C)=C/[C@@H](C)C(=O)[C@@H](C)[C@H](O)[C@@H](C)C/C(C)=C/C(=O)O)/C=C/[C@@H]1OC(=O)C=C[C@@H]1C` [LMB, Leptomycin B]?
expression of the Rev-dependent GFP reporter [1]: inhibit; expression of the huGFP reporter [2]: not the expression of the huGFP reporter
